PubChem BioAssay (NCI)
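Cells were grown in 96-well plates and exposed to each compound for 48 hours at five concentrations; endpoints were interpolated linearly between bracketing concentrations, or set to the highest concentration if not reached. The concentration for 50% growth inhibition is given as GI50. TGI: concentration producing complete growth inhibition.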

How the values were obtained:
Assay in all cases: growth of human tumour cells (NCI), 48 h
SN12C renal = tested on: SN12C renal
RXF 393 renal = tested on: RXF 393 renal
IGROV1 ovarian = tested on: IGROV1 ovarian
M14 melanoma = tested on: M14 melanoma
KM12 colon = tested on: KM12 colon
UO-31 renal = tested on: UO-31 renal
UACC-257 melanoma = tested on: UACC-257 melanoma
A549 NSCLC = tested on: A549 NSCLC
MCF7 breast = tested on: MCF7 breast
NCI-H460 lung = tested on: NCI-H460 lung
CCRF-CEM leukemia = tested on: CCRF-CEM leukemia
SF-295 CNS = tested on: SF-295 CNS
A498 renal = tested on: A498 renal
SW-620 colon = tested on: SW-620 colon
CAKI-1 renal = tested on: CAKI-1 renal
SF-539 CNS = tested on: SF-539 CNS
OVCAR-5 ovarian = tested on: OVCAR-5 ovarian
MDA-MB-435 = tested on: MDA-MB-435
LOX IMVI melanoma = tested on: LOX IMVI melanoma
NCI-H23 lung = tested on: NCI-H23 lung
NCI-H226 lung = tested on: NCI-H226 lung
HOP-62 NSCLC = tested on: HOP-62 NSCLC
HCT-116 colon = tested on: HCT-116 colon
HCT-15 colon = tested on: HCT-15 colon
MDA-MB-231 breast = tested on: MDA-MB-231 breast
COLO 205 colon = tested on: COLO 205 colon
K-562 leukemia = tested on: K-562 leukemia
OVCAR-3 ovarian = tested on: OVCAR-3 ovarian
OVCAR-8 ovarian = tested on: OVCAR-8 ovarian
OVCAR-4 ovarian = tested on: OVCAR-4 ovarian
UACC-62 melanoma = tested on: UACC-62 melanoma
TK-10 renal = tested on: TK-10 renal
HOP-92 NSCLC = tested on: HOP-92 NSCLC
SF-268 CNS = tested on: SF-268 CNS
EKVX NSCLC = tested on: EKVX NSCLC
SK-MEL-2 melanoma = tested on: SK-MEL-2 melanoma
BT-549 breast = tested on: BT-549 breast
PC-3 prostate = tested on: PC-3 prostate
NCI/ADR-RES ovarian = tested on: NCI/ADR-RES ovarian
HS 578T breast = tested on: HS 578T breast
U251 CNS = tested on: U251 CNS
NCI-H522 lung = tested on: NCI-H522 lung
SNB-19 CNS = tested on: SNB-19 CNS
SK-MEL-5 melanoma = tested on: SK-MEL-5 melanoma
HL-60(TB) leukemia = tested on: HL-60(TB) leukemia
SK-OV-3 ovarian = tested on: SK-OV-3 ovarian
RPMI-8226 leukemia = tested on: RPMI-8226 leukemia
SK-MEL-28 melanoma = tested on: SK-MEL-28 melanoma
ACHN renal = tested on: ACHN renal
DU-145 prostate = tested on: DU-145 prostate
786-0 renal = tested on: 786-0 renal
MALME-3M melanoma = tested on: MALME-3M melanoma
SNB-75 CNS = tested on: SNB-75 CNS
HCC-2998 colon = tested on: HCC-2998 colon
T-47D breast = tested on: T-47D breast

**Q.** What does the source list for S=c1nc(N/N=C/c2ccco2)c2cn[nH]c2[nH]1?
**A.** GI50 (SN12C renal): 83.7 µM; TGI (SN12C renal): > 100 µM; GI50 (RXF 393 renal): > 100 µM; TGI (RXF 393 renal): > 100 µM; GI50 (IGROV1 ovarian): 46.9 µM; TGI (IGROV1 ovarian): > 100 µM; GI50 (M14 melanoma): > 100 µM; TGI (M14 melanoma): > 100 µM; GI50 (KM12 colon): 24.7 µM; TGI (KM12 colon): > 100 µM; GI50 (UO-31 renal): 98.1 µM; TGI (UO-31 renal): > 100 µM; GI50 (UACC-257 melanoma): > 100 µM; TGI (UACC-257 melanoma): > 100 µM; GI50 (A549 NSCLC): 20 µM; TGI (A549 NSCLC): > 100 µM; GI50 (MCF7 breast): 3.6 µM; TGI (MCF7 breast): > 100 µM; GI50 (NCI-H460 lung): 17.9 µM; TGI (NCI-H460 lung): > 100 µM; GI50 (CCRF-CEM leukemia): 2200 nM; TGI (CCRF-CEM leukemia): > 100 µM; GI50 (SF-295 CNS): > 100 µM; TGI (SF-295 CNS): > 100 µM; GI50 (A498 renal): 3.23 µM; TGI (A498 renal): 22.5 µM; GI50 (SW-620 colon): 51 µM; TGI (SW-620 colon): > 100 µM; GI50 (CAKI-1 renal): 52.9 µM; TGI (CAKI-1 renal): > 100 µM; GI50 (SF-539 CNS): 43.3 µM; TGI (SF-539 CNS): > 100 µM; GI50 (OVCAR-5 ovarian): > 100 µM; TGI (OVCAR-5 ovarian): > 100 µM; GI50 (MDA-MB-435): 45.7 µM; TGI (MDA-MB-435): > 100 µM; GI50 (LOX IMVI melanoma): 58.7 µM; TGI (LOX IMVI melanoma): > 100 µM; GI50 (NCI-H23 lung): > 100 µM; TGI (NCI-H23 lung): > 100 µM; GI50 (NCI-H226 lung): > 100 µM; TGI (NCI-H226 lung): > 100 µM; GI50 (HOP-62 NSCLC): > 100 µM; TGI (HOP-62 NSCLC): > 100 µM; GI50 (HCT-116 colon): 25 µM; TGI (HCT-116 colon): > 100 µM; GI50 (HCT-15 colon): 50 µM; TGI (HCT-15 colon): > 100 µM; GI50 (MDA-MB-231 breast): > 100 µM; TGI (MDA-MB-231 breast): > 100 µM; GI50 (COLO 205 colon): 29.5 µM; TGI (COLO 205 colon): 90.8 µM; GI50 (K-562 leukemia): 39.9 µM; TGI (K-562 leukemia): > 100 µM; GI50 (OVCAR-3 ovarian): 32.3 µM; TGI (OVCAR-3 ovarian): > 100 µM; GI50 (OVCAR-8 ovarian): 69.2 µM; TGI (OVCAR-8 ovarian): > 100 µM; GI50 (OVCAR-4 ovarian): > 100 µM; TGI (OVCAR-4 ovarian): > 100 µM; GI50 (UACC-62 melanoma): 33.8 µM; TGI (UACC-62 melanoma): > 100 µM; GI50 (TK-10 renal): > 100 µM; TGI (TK-10 renal): > 100 µM; GI50 (HOP-92 NSCLC): 71.4 µM; TGI (HOP-92 NSCLC): > 100 µM; GI50 (SF-268 CNS): 48.4 µM; TGI (SF-268 CNS): > 100 µM; GI50 (EKVX NSCLC): 51 µM; TGI (EKVX NSCLC): > 100 µM; GI50 (SK-MEL-2 melanoma): > 100 µM; TGI (SK-MEL-2 melanoma): > 100 µM; GI50 (BT-549 breast): 75.2 µM; TGI (BT-549 breast): > 100 µM; GI50 (PC-3 prostate): 57.5 µM; TGI (PC-3 prostate): > 100 µM; GI50 (NCI/ADR-RES ovarian): > 100 µM; TGI (NCI/ADR-RES ovarian): > 100 µM; GI50 (HS 578T breast): 42.5 µM; TGI (HS 578T breast): > 100 µM; GI50 (U251 CNS): > 100 µM; TGI (U251 CNS): > 100 µM; GI50 (NCI-H522 lung): 40.5 µM; TGI (NCI-H522 lung): > 100 µM; GI50 (SNB-19 CNS): > 100 µM; TGI (SNB-19 CNS): > 100 µM; GI50 (SK-MEL-5 melanoma): 28.2 µM; TGI (SK-MEL-5 melanoma): > 100 µM; GI50 (HL-60(TB) leukemia): 77.1 µM; TGI (HL-60(TB) leukemia): > 100 µM; GI50 (SK-OV-3 ovarian): 92.7 µM; TGI (SK-OV-3 ovarian): > 100 µM; GI50 (RPMI-8226 leukemia): 18.2 µM; TGI (RPMI-8226 leukemia): > 100 µM; GI50 (SK-MEL-28 melanoma): > 100 µM; TGI (SK-MEL-28 melanoma): > 100 µM; GI50 (ACHN renal): > 100 µM; TGI (ACHN renal): > 100 µM; GI50 (DU-145 prostate): 61.8 µM; TGI (DU-145 prostate): > 100 µM; GI50 (786-0 renal): > 100 µM; TGI (786-0 renal): > 100 µM; GI50 (MALME-3M melanoma): > 100 µM; TGI (MALME-3M melanoma): > 100 µM; GI50 (SNB-75 CNS): > 100 µM; TGI (SNB-75 CNS): > 100 µM; GI50 (HCC-2998 colon): 22.4 µM; TGI (HCC-2998 colon): 88.7 µM; GI50 (T-47D breast): 1950 nM; TGI (T-47D breast): 48.1 µM
